# Results as given in US12415819B2, “Cu- and Ni-catalyzed decarboxylative borylation reactions” (The Scripps Research Institute, priority 2017, dated 2025).
# Read-outs that look alike come from different tables or passages of the source. Residues, ends and D or L forms follow the SMILES beside them. *: point of attachment. Moc = COC(=O)*
# How the values were obtained:
# [1] = molecular target: human neutrophil elastase (Homo sapiens (Human), UniProt P08246); test: Elastase inhibition assay, purified human neutrophil elastase; format: biochemical; conditions: for IC50 / LipE: Purified NHE; for IC50: 30 minutes incubation at room temperature, 100 μM substrate
# Description: Serially diluted compounds in DMSO were dispensed into a 384-well black opaque plate by Echo dispenser. 0.1 μg/mL human neutrophil elastase (EPC, Catalog# SE563, Owensville, Ms.) or human sputum diluted with assay buffer (100 mM HEPES, 500 mM NaCl, 0.02% Tween 20) was added into the 384-well plate, and was incubated with different compounds at different concentrations for 30 minutes at room temperature. The final concentration of DMSO in the reaction was 0.1%. […] Slope of fluorescence intensity vs. time representing the Vmax of enzyme activity was calculated with MARS software. % relative inhibition was calculated as: […]
# (§1) IC50 was calculated based on the % relative inhibition curve using log(agonist) vs. response (three parameters) method with Prism software. All experiments were performed in triplicate for at least three independent times.
# [2] = molecular target: elastase in CF patient sputum (Homo sapiens (Human), UniProt P08246); test: Elastase inhibition assay in CF patient sputum; format: biochemical; conditions: for IC50 / LipE: CF sputum
# Description: (§2) Serially diluted compounds in DMSO were dispensed into a 384-well black opaque plate by Echo dispenser. 0.1 μg/mL human neutrophil elastase (EPC, Catalog# SE563, Owensville, Ms.) or human sputum diluted with assay buffer (100 mM HEPES, 500 mM NaCl, 0.02% Tween 20) was added into the 384-well plate, and was incubated with different compounds at different concentrations for 30 minutes at room temperature. The final concentration of DMSO in the reaction was 0.1%. Elastase substrate MeOSuc-AAPV-AMC (Bachem, Catalog #I-1270, Torrance, CA) of 100 μM final concentration was then added into the reaction system just before enzyme kinetics were read on PheraSTAR plate reader at excitation of 380 nm and emission of 460 nm with a 3-minutes interval for 30 minutes in total. Slope of fluorescence intensity vs. time representing the Vmax of enzyme activity was calculated with MARS software. % relative inhibition was calculated as: […]
# as §1
# (§3) Human sputum was purchased from Discovery Life Sciences (Los Osos, CA). Human sputum was diluted 1:10 in volume with assay buffer (100 mM HEPES, 500 mM NaCl, 0.02% Tween 20) followed by vigorous vortexing. The 1:10 diluted human sputum was further diluted into 1:30, 1:90, 1:270, 1:810, and 1:2430. The elastase concentration was determined by elastase inhibition assay as described above. Specifically, a series of standards of human neutrophil elastase (starting at 2 μg/mL and further diluted 1:2 in volume) were prepared in the assay buffer. The samples and standards were plated in a 384-well black solid bottom plate; the substrate MeOSuc-AAPV-AMC of 100 μM final concentration was then added into the reaction system just before enzyme kinetics were read on PheraSTAR plate reader as mentioned above. The slope of enzymatic kinetic reading was calculated by MARS software. The elastase levels of the human sputum were calculated based on the standard curve.
# [3] = molecular target: elastase in COPD patient sputum (Homo sapiens (Human), UniProt P08246); test: Elastase inhibition assay in COPD patient sputum; format: biochemical
# Description: as §2, §1, §3
# [4] = Mouse Liver Microsomal Metabolic Stability Assay; conditions: for Remaining (*NCF = 60min): MLM 0.5, no co-factor; for Remaining (T = 60 min): MLM 0.5, with NADPH regenerating system
# Description: 100 mM potassium phosphate buffer, pH 7.4. • 2. 10 mM MgCl2 • 3) Compound Dilution:
# Intermediate solution was prepared by diluting 5 μL of compound or control stock solution (10 mM in DMSO) with DMSO (45 μL) and 1:1 Methanol/Water (450 μL) (concentration=100 μM, 45% MeOH). Working solution was prepared by diluting 50 μL of the intermediate solution with 450 μL of 100 mM potassium phosphate buffer, pH=7.4 (centration=10 μM, 4.5% MeOH). • 4) NADPH regenerating system (final Isocitric dehydrogenase concentration=1 unit/mL at incubation) comprised:
# 10 μL/well of compound working solution or control working solution was added to all plates (T0, T5, T10, T20, T30, T60, NCF60) except the matrix blank. 80 μL/well of microsome solution was added to every plate. The mixtures of microsome solution and compound were incubated at 37° C. for about 10 min. 10 μL/well of NADPH regenerating system (pre-warmed to 37° C.) was then added to every plate to start the reaction. […] For NCF60 (abbreviation of no co-factor) no NADPH regenerating system was added, but was replaced by 10 μL/well of potassium phosphate buffer (100 mM, pH 7.4); the resulting mixture was incubated at 37° C. for 1 h.
# The reactions were then terminated with the stop solution (cold at 4° C.) containing 100 ng/mL Tolbutamide and 100 ng/mL Labetalol ([…]). The sampling plates were shaken for approximately 10 minutes, then were centrifuged at 4000 rpm for 20 min at 4° C. While centrifuging, 8 new 96 well plates were loaded with […] of HPLC grade water. 100 μL of supernatant was finally added to 300 μL of HPLC grade water and mixed for LC/MS/MS analysis.
# The equation of first order kinetics was used to calculate T1/2 and CIint(mic): […]
# [5] = Caco-2 Permeability Assay; conditions: human
# Description: Digoxin, fenoterol, and propranol were used as standards respectively. Transport Method:
# The transport buffer used in the study was HBSS with 10 mM HEPES at pH 7.40±0.05. Compounds were tested at 2 μM bi-directionally in duplicates. Digoxin was tested at […] bi-directionally in a duplicate, while fenoterol and propranolol were tested at 2 μM in A(apical) to B (basolateral) direction in duplicates. The final DMSO concentration was adjusted to less than 1%. The plate was incubated for 2 hours in a CO2 incubator at 37±1° C., with 5% CO2 at saturated humidity without shaking. All samples, after mixing with acetonitrile containing internal standard, were centrifuged at 4000 rpm for 20 min. Subsequently,100 μL supernatant solution was diluted with 100 μL distilled water for LC/MS/MS analysis. Concentrations of test and control compounds in starting solution, donor solution, and receiver solution were quantified by LC/MS/MS methodologies, using peak area ratio of analyte/internal standard. After transport assay, lucifer yellow rejection assay was applied to determine the Caco-2 cell monolayer integrity.
# Data analysis: The apparent permeability coefficient Papp (cm/s) was calculated using the equation:
# The efflux ratio was calculated using the equation: Efflux ratio=Papp(BA)/Papp(AB)
# Percent recovery was calculated using the equation: % Recovery=100×[(Vr·Cr)+(Vd·Cd)]/(Vd·C0) Where Vd is the volume in the donor chambers (0.075 mL on the apical side, 0.25 mL on the basolateral side); Cd and Cr are the final concentrations of transport compound in donor and receiver chambers, respectively.
# Plasma Stability Assay = format: in vitro ADME, mouse; conditions: CD-1 Mouse Plasma
# Description: Propantheline was used as the reference compound in this assay; all stock solutions were stored at −40° C. before use. • 2) Test system: CD-1 Mouse Plasma from a minimum of 20 male individuals were obtained from BioreclamationlVT (Catalog #: […]2-M; Batch #: MSE244515). EDTA-K2 was used as the anticoagulant. Procedure:
# The frozen plasma was thawed in a water bath at 37° C. prior to the experiments. The plasma was centrifuged at 4000 rpm for 5 min and the clots were removed if necessary.
# The pH was adjusted to 7.4±0.1 as necessary. An intermediate solution (1 mM) was prepared and a 100 μM dosing solution was prepared by diluting 10 μL of the intermediate solution with 90 μL 45% MeOH/H2O. Duplicate of test samples were made by mixing 98 μL of blank plasma with 2 μL of dosing solution (100 μM) to achieve the final concentration of 2 μM. Samples were incubated at 37° C. At each time point (0, 10, 30, 60, and 120 min), 400 μL of stop solution (consisting of 200 ng/mL tolbutamide and 20 ng/mL buspirone in 50% MeOH/CH3CN) was added to precipitate protein under thorough mixing. The sample plates were then centrifuged at 4,000 rpm for 10 min. An aliquot of supernatant (100 μL) was transferred from each well and mixed with 200 of μL ultrapure water. The samples were shaken at 800 rpm for about 10 min before LC-MS/MS analysis.
# Data analysis: The % remaining of test compound after incubation in plasma was calculated using following equation: Remaining=100×(PAR at Tn/PAR at T0) where PAR is the peak area ratio of analyte versus internal standard (IS) and The appointed incubation time points are T0 (0 min), Tn (n=0, 10, 30, 60, 120 min).
# LC-MS/MS condition: Each compound was analyzed by LC/MS using an ACE 5-phenyl 50×2.1 mm column (Part No. ACE-125-0502) with 0.1% formic acid in water and 0.1% formic acid in acetonitrile as the mobile phases. Tobultamide was used as the internal standard. Data collected were processed by Analyst 1.6.2 software and MultiQuant 3.0.2 software.
# [6] = mouse, liver microsomes, pH 7.4
# human neutrophil elastase, sequence (P08246 30-247): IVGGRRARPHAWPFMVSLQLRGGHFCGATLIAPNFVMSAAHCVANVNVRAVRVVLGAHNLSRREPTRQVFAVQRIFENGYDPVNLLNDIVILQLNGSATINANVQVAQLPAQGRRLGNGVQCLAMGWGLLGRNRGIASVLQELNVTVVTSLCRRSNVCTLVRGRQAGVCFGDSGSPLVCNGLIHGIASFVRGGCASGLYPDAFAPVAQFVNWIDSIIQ
# elastase in CF patient sputum, sequence (P08246 30-267): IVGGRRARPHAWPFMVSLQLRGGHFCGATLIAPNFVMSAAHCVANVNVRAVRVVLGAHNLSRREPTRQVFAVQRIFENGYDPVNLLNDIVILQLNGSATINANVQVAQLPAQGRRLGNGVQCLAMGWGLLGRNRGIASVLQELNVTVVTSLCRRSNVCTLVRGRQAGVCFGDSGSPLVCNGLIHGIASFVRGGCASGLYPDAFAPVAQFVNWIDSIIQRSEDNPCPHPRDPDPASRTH
# elastase in COPD patient sputum, sequence (P08246 30-267): as above
Compound,IC50 [2] [nM],LipE [2],LipE [1],IC50 ([1]; read-out: IC50) [nM],IC50 [3] [nM],LipE [3],further results
"COC(=O)N[C@H](C(=O)N1CCC[C@H]1C(=O)N[C@H](C(=O)O)C(C)C)C(C)C [Compound 50b, (methoxycarbonyl)-L-valyl-L-prolyl-L-valine] (Moc-Val-Pro-Val-OH)",–,–,–,–,–,–,inhibitory activity against HNE (in words) [1]: devoid of any inhibitory activities; IC50 [1]: Not Active
Cc1c(-c2ccnn2C)cc(C(=O)NCc2ccc(S(C)(=O)=O)cn2)c(=O)n1-c1cccc(C(F)(F)F)c1 [Compound 53],4.08 ± 0.39,7.11,7.32,2.62 ± 0.39,2.98 ± 0.82,7.22,–
"CC1=C(C#N)[C@@H](c2ccc(C#N)cc2S(C)(=O)=O)N(C)C(=O)N1c1cccc(C(F)(F)F)c1 [Compound 54, BAY 85-8501]",–,5.87,6.76,–,–,6.85,inhibitory activity in patient sputum versus purified HNE (in words) ([2]; sputum samples of CF and COPD patients): potencies diminished drastically
COC(=O)C1=C(C)N(c2cccc(C(F)(F)F)c2)c2n[nH]c(=O)n2C1c1ccc(C#N)cc1 (stereo not shown) [Compound 56],2.68 ± 0.04,4.29,4.59,1.34 ± 0.13,1.12 ± 0.04,4.67,–
COC(=O)C1=C(C)N(c2cccc(C(F)(F)F)c2)c2nn(CC(=O)N(C)CCC[N+](C)(C)C)c(=O)n2C1c1ccc(C#N)cc1 (stereo not shown) [Compound 57],2.04 ± 0.08,9.16,9.46,0.99 ± 0.13,0.97 ± 0.14,9.45,–
O=C(O)Cc1ccccc1Nc1c(Cl)cccc1Cl [Diclofenac],–,–,–,–,–,–,"Remaining (*NCF = 60min) [4]: 88.0%; Remaining (T = 60 min) [4]: 43.0%; Extraction ratio ([4]; MLM 0.5, Qh 90.0 mL/min/Kg): 0.5; CLint scaled at 1 μM [4, 6]: 108 mL/min/kg; microsomal CLint at 1 μM [4, 6]: 27.2 µL/min/mg; half-life at 1 μM ([4]; mouse, microsomes, pH 7.4): 51 min"
C[C@H]1O[C@@H](O[C@H]2[C@@H](O)C[C@H](O[C@H]3[C@@H](O)C[C@H](O[C@H]4CC[C@@]5(C)[C@H](CC[C@@H]6[C@@H]5C[C@@H](O)[C@]5(C)[C@@H](C7=CC(=O)OC7)CC[C@]65O)C4)O[C@@H]3C)O[C@@H]2C)C[C@H](O)[C@@H]1O [Digoxin],–,–,–,–,–,–,"Papp A→B at 120 min, 2 μM ([5]; Caco-2, pH 7.4): < 0.02 ×10⁻⁶ cm/s; Papp B→A at 120 min, 2 μM ([5]; Caco-2, pH 7.4): 8.5 ×10⁻⁶ cm/s; efflux ratio at 2 h, 2 μM ([5]; Caco-2, pH 7.4): > 364; recovery at 2 h, 2 μM ([5]; Caco-2, pH 7.4, Mean Recovery % A to B): < 91.2%; recovery at 2 h, 2 μM ([5]; Caco-2, pH 7.4, Mean Recovery % B to A): 100%"
CC(Cc1ccc(O)cc1)NCC(O)c1cc(O)cc(O)c1 (stereo not shown) [Fenoterol],–,–,–,–,–,–,"Papp A→B at 120 min, 2 μM ([5]; Caco-2, pH 7.4): 0.24 ×10⁻⁶ cm/s; recovery at 2 h, 2 μM ([5]; Caco-2, pH 7.4): 93.4%"
CC(C)[N+](C)(CCOC(=O)C1c2ccccc2Oc2ccccc21)C(C)C [Propantheline],–,–,–,–,–,–,"% Remaining (mean) (Plasma Stability Assay; 0 min, 2 μM, 37° C.): 100.0%; % Remaining (mean) (Plasma Stability Assay; 10 min): 76.8%; % Remaining (mean) (Plasma Stability Assay; 30 min): 39.1%; % Remaining (mean) (Plasma Stability Assay; 60 min): 21.7%; % Remaining (mean) (Plasma Stability Assay; 120 min): 7.7%"
C[C@]12CC[C@H]3[C@@H](CCC4=CC(=O)CC[C@@]43C)[C@@H]1CC[C@@H]2O [Testosterone],–,–,–,–,–,–,"CLint(liver) ([4]; MLM 0.5): 2365.5 mL/min/kg; Remaining (*NCF = 60min) [4]: 70.3%; Remaining (T = 60 min) [4]: 0.0%; half-life at 1 μM ([4]; mouse, microsomes, pH 7.4): 2.3 min; microsomal CLint ([4]; mouse, microsomes, pH 7.4): 597 µL/min/mg"
POL6014 [Compound 55],0.48 ± 0.03,17.8,–,0.093 ± 0.008,0.051 ± 0.004,18.8,–
